Assay results as given in paper PMC9686339, “Bioassay-guided isolation of Fenghuang Dancong tea constituents with α-glucosidase inhibition activities” (Frontiers in Nutrition, 2022).
Like-named read-outs stand apart in the source and are kept apart here.

What was measured:
[1] = Liposolubility (qualitative observation); format: physicochemical
HepG2 cells = test: Glucose consumption assay in HepG2 cells; format: cell-based; details: 0.18 mg/L, 24 h, medium with 12.0 mM glucose
Experimental: Here, HepG2 cells were used to evaluate the glucose consumption of the isolated compounds according to a method described in the literature ([12]). Briefly, HepG2 cells were cultured for 24 h. Subsequently, they were transferred from DMEM medium (containing FBS, PEM and SM) to another DMEM medium (containing 12.0 mM glucose). Then, HepG2 cells and the test samples with a concentration of 0.18 mg/L were incubated together for another 24 h. The glucose consumption was obtained by measuring the glucose content of the cell culture supernatant with a glucose kit.

α-glucosidase [2] = test: Enzyme kinetic experiments on α-glucosidase (reversibility, Lineweaver-Burk plots, secondary replot); format: biochemical
From the text: The reversibility of enzyme inhibition can be determined according to the influence of sample concentration and enzyme concentration on enzyme activity. […] This implied that 1 was a reversible α-glucosidase inhibitor ([16]). The reversibility of the inhibition of α-glucosidase by different flavonoids has been studied extensively ([17]). However, definitive conclusions cannot been drawn about the relationship between the structure of flavonoids and the reversibility of the inhibition of α-glucosidase ([18]).
The double-reciprocal diagram, based on a Lineweaver–Burk plot, is widely used to investigate inhibitory kinetics of compounds on enzymes. […] Thus, the complex formed by the combination of compound 1 with substrate and α-glucosidase led to the inactivation of the latter. In addition, the number of binding sites between the compound and α-glucosidase can be obtained by a second linear fitting of the concentration of compound 1 and Y-intercept, which is shown in Figure 4D. […] Through further calculation, the binding constant was obtained as 4.58 × 10^4 L/mol. There were obvious differences in the inhibition mechanism of different types of flavonoids on α-glucosidase. […] The above facts indicate that the mechanisms of action of flavonoids on glucosidase are diverse and complex.

α-glucosidase [3] = test: α-glucosidase inhibition assay (p-NPG substrate); format: biochemical; details: pH 6.8, 37°C
Experimental: This experiment was carried out according to the literature ([11]). Briefly, the test sample was dissolved in solutions (SS) with DMSO as the solvent. p-NPG and α-glucosidase were, respectively mixed with phosphate buffer (PB, 60 mM phosphate, pH 6.8) and used as stock solutions. The concentration of α-glucosidase solution (GS) was 0.5 U/ml and that of p-NPG solution (NS) was 5 mM. In addition, four different solutions (A, B, C and D) were prepared: Solution A contained 112 μl PB, 20 μl GS, and 8 μl SS; Solution B contained 112 μl PB and 20 μl GS; Solution C contained 112 μl PB, 8 μl SS, and 20 μl GS; and Solution D contained 132 μl PB and 8 μl DMSO. After starting each reaction at 37°C, p-nitrophenol was quantified by measuring the absorbance at 405 nm with a UV–vis spectrophotometer. The inhibition rate was calculated according to equation (1):
(1) Inhibition rate (%)= [((Aas − Bas)[…]) / (Aas −Bas)][…],
where Aas, Bas, Cas and Das are the absorbances of solution A, B, C and D, respectively. The sample concentration that inhibited 50% α-glucosidase activity was defined as the IC50value.

α-glucosidase [4] = test system: α-glucosidase; parameters: method as in PMID 30236734; details: cited from earlier work
α-glucosidase [5] = target: α-glucosidase; parameters: method as in PMID 28554631; details: constituent of Yingde black tea; read-out: IC50 of α-glucosidase inhibition; cited from earlier work

COc1ccc([C@H]2CC(=O)c3c(cc(O)c(/C=C(/C)CCC=C(C)C)c3O)O2)cc1O [compound 1, (R, z)-6-(2,6-xylheptane-1,5-dien-1-yl)-5,7-dihydroxy-2-(3-hydroxy-4-methoxyphenyl) chroman-4-one]
Liposolubility [1]: excellent | Glucose consumption (HepG2 cells): 10.58 ± 0.18 mmol/L | Type of α-glucosidase inhibition (α-glucosidase [2]; Lineweaver-Burk plot): non-competitive | Binding constant with α-glucosidase (α-glucosidase [2]; calculated from secondary replot): 45800 L/mol | Reversibility of the inhibition of α-glucosidase (α-glucosidase [2]; enzyme concentration vs enzyme activity at a series of sample dosages): reversible | Number of binding sites with α-glucosidase (α-glucosidase [2]; secondary replot of Y-intercept vs concentration): one | melting point: 165 °C | IC50 (α-glucosidase [3]): 7.51 µM

COc1ccc([C@H]2CC(=O)c3c(cc(O)c(/C=C(\C)CCC=C(C)C)c3O)O2)cc1O [compound 2, (R,E)-6-(2,6-dimethylhepta−1,5-dien-1-yl)-5,7-dihydroxy-2-(3-hydroxy-4-methoxyphenyl) chroman-4-one]
Liposolubility [1]: almost the same | Glucose consumption (HepG2 cells): 9.40 ± 0.12 mmol/L | IC50 (α-glucosidase [3]): 33.2 ± 2.21 µM

CC1=CC[C@H](C)C(c2c(O)cc3occ(-c4ccc(O)cc4)c(=O)c3c2O)=CC1 [compound 3, (S)-6-(4,7-dimethylcyclohepta-1,4-dien-1-yl)-5,7-dihydroxy-3-(4-hydroxyphenyl)−4H-chromen-4-one]
Liposolubility [1]: slightly inferior to the others | Glucose consumption (HepG2 cells): 8.98 ± 0.39 mmol/L | IC50 (α-glucosidase [3]): 56.4 ± 2.11 µM

O=c1c(O)c(-c2ccccc2)oc2cc(O)cc(O)c12 [galangin]
Number of binding sites with α-glucosidase (α-glucosidase [4]): one | Type of α-glucosidase inhibition (α-glucosidase [4]): mixed inhibition of competitive inhibition and non-competitive inhibition

amelliaone A
IC50 (α-glucosidase [5]): 10.2 µM

ameridone D [compound 4]
Glucose consumption (HepG2 cells): 8.30 ± 0.33 mmol/L | IC50 (α-glucosidase [3]): 76.5 ± 3.52 µM

ameridone E [compound 5]
Glucose consumption (HepG2 cells): 9.06 ± 0.15 mmol/L | IC50 (α-glucosidase [3]): 81.7 ± 2.72 µM
